Series [1] can be described thus: Calculation of HCQ blood, total lung and lung compartment concentrations. Further details: species or system Syrian hamsters. The procedure:
Starting from the measured total trough plasma concentrations measured at killing after 4 d or 5 d of HCQ treatment, total lung cytosolic concentrations of HCQ were calculated. First, the mean trough total plasma concentration of HCQ was used as a starting point to estimate the whole blood concentrations considering a blood to plasma ratio of 7.2, as reported by Tett et al. ([50]) and as mentioned in the summary of product characteristics of Plaquenil (Sanofi) (Eq. 1). whole blood concentration=plasma concentration×7.2.
Relying on the experimental Kp (tissue versus whole blood partition coefficient) values in rats, the total lung tissue concentrations of HCQ were determined. Based on the partition values as reported by Wei et al. ([51]), a lung Kp value of 50 was applied to estimate the total lung concentration (Eq. 2). total lung tissue concentration=mean blood concentration×50.
Based on these calculations, lung cytosolic HCQ concentrations correspond to 6% of the total lung tissue concentration (Eq. 3). total cytosolic lung tissue concentration=total lung tissue concentration×0.06.

Series [2] relates to SARS-CoV-2. The series is described as follows: Reported in vitro EC50 values of HCQ against SARS-CoV-2. The series is classed as cell-based. The settings on record: equated to 3 times the reported EC50.
Series [3] deals with SARS-CoV-2. To be noted: hamster, in vivo.
For series [4], the system named is SARS-CoV-2. The settings on record: interquartile range of 5.4 (25 to 75%); read-out: reported in vitro EC50, median value; cited from earlier work.
On the set-up of series [5]: method as in ref 50 (Tett et al.) and summary of product characteristics of Plaquenil. To be noted: ref 50 (Tett et al.) and summary of product characteristics of Plaquenil; cited from earlier work.
Details of series [6]: method as in ref 51 (Wei et al.). To be noted: rats, ref 51 (Wei et al.); cited from earlier work.
Series [7] concerns SARS-CoV-2. Also noted: method as in PMID 32444382. The settings on record: cited from earlier work.
The subject of series [8] is SARS-CoV-2. Also noted: method as in ref 13 = [13]; 13 P. Maisonnasse ., Hydroxychloroquine in the treatment and prophylaxis of SARS-CoV-2 infection in non-human primates . Research Square:10.21203/RS.3.RS-27223/V1 (6 May 2020) . The settings on record: therapeutic and prophylactic setting; cited from earlier work.
For series [9], the system named is SARS-CoV-2. Also noted: method as in PMID 32492293. To be noted: postexposure prophylaxis, high doses of HCQ; cited from earlier work.
The subject of series [10] is COVID-19. Further details: method as in ref 32 = [32]; 32 P. W. Horby , M. Landray , “Press release: No clinical benefit from use of hydroxychloroquine in hospitalised patients with COVID-19” (University of Oxford, 2020) . To be noted: patients admitted with COVID-19; cited from earlier work.
For series [11] the following is noted: value applied in pH partition calculation; cited from earlier work.
A short description of series [12]: HCQ plasma trough concentrations in hamsters (HPLC-MS). To be noted: female, Syrian, hamster, intraperitoneal, 50 mg/kg/d.
Series [13] is described as follows: Favipiravir plasma trough concentrations in hamsters. The class given is in vivo, Syrian hamsters. To be noted: for concentration at 16 h after last treatment: female, hamster, plasma.
The subject of series [14] is SARS-CoV-2. Also noted: method as in PMID 33741945. The settings on record: cited from earlier work.
On the set-up of series [15]: method as in PMID 32405421. The settings on record: cited from earlier work.
Series [16] relates to COVID-19. Also noted: method as in ref 39 = [39]; 39 C. Chen ., Favipiravir versus arbidol for COVID-19: A randomized clinical trial . medRxiv:10.1101/2020.03.17.20037432 (20 March 2020) . To be noted: cited from earlier work.
For series [17] the following is noted: human, in vivo; cited from earlier work.

Broadly, the EC50 is the midpoint of the concentration-response curve. The term pKa denotes the negative logarithm of the acid dissociation constant.

SMILES strings stand for the structures. Values joined by “and” are separate entries in the source; they are usually repeats but may differ in a detail not shown here. Equal values may be shown once. Read-outs that look alike come from different tables or passages of the source.

Take `CCN(CCO)CCCC(C)Nc1ccnc2cc(Cl)ccc12` (stereo not shown) [HCQ, hydroxychloroquine]: the “lung cytosolic HCQ concentration as share of total lung tissue concentration” value in series [1] (pH partition theory, relative lung compartment volumes) was 6%. Besides, in series [1] (trough, HCQ sulfate 50 mg/kg/d), the “endosomal/lysosomal HCQ concentration” value was 1.9 mM and the “interstitial concentration in lung” value is reported as 5.4 µM. Moreover, the “total lung concentration (Eq. 2)” value in series [1] (trough, HCQ sulfate 50 mg/kg/d, blood concentration × 50) is 90.2 ± 69.4 µM. The “whole blood concentration (Eq. 1)” value in series [1] (trough, HCQ sulfate 50 mg/kg/d, plasma concentration × 7.2) was 1.8 ± 1.4 µM. In addition, the “total cytosolic lung tissue concentration (Eq. 3)” value in series [1] (trough, HCQ sulfate 50 mg/kg/d, total lung × 0.06) is on record as 5.4 ± 4.2 µM. The “estimated EC90 (3 times the EC50), target lung concentration” value in series [2] is 13.5 ± 16.3 µM. Also, in series [3], the “radiological improvement (micro-CT) vs nontreated animals” value was “no radiological improvement”, the “reduction in viral RNA load in the ileum or stool” value was “no reduction”, the “reduction of infectious virus titers in the lungs” value is given as “no significant reduction” and the “reduction of viral RNA in lung vs untreated infected hamsters” value is on record as 0.3 log10 viral RNA copies per mg of lung. Besides, the weight loss in [3] is under 5%. In series [4], the concentration for a half-maximal effect (EC50) is 4.5 µM. For the same molecule, the “blood to plasma ratio” value in series [5] is on record as 7.2. In addition, the “lung Kp (tissue versus whole blood partition coefficient)” value in series [6] is 50. The “virus titers in SARS-CoV-2-infected ferrets” value in series [7] is “not able to significantly reduce”. For the same molecule, the “viral loads in SARS-CoV-2-infected cynomolgus macaques” value in series [8] was “did not result in a significant decrease”. Moreover, the “prevention of SARS-CoV-2 infection or COVID-19-like disease” value in series [9] is “did not prevent”. The “mortality or duration of hospital stay” value in series [10] is reported as “did not result in a beneficial effect”. For the same molecule, the pKa in series [11] was 9.67. In addition, in series [12], the concentration at 4 d post infection (at killing) is 84 ng/mL and 300 nM.

As to `NC(=O)c1nc(F)c[nH]c1=O` [favipiravir], in series [13] (Syrian, intraperitoneal, 1000 mg/kg/d, favipiravir 1,000 mg/kg/d i.p. BID for 4 d, read-out: plasma trough level), the concentration at 16 h after last treatment is about 4400 ng/mL. Besides, the concentration at 16 h after last treatment in series [13] (intraperitoneal, 1000 mg/kg/d, favipiravir 1,000 mg/kg/d i.p. BID for 4 d, read-out: plasma trough level) is 4400 ± 1600 ng/mL. In addition, the concentration at 16 h after last treatment in series [13] (intraperitoneal, favipiravir 600 mg/kg/d i.p. BID for 4 d, read-out: plasma trough level) came to 1200 ± 300 ng/mL. Besides, the concentration at 16 h after last treatment in series [13] (favipiravir 300 mg/kg/d oral BID for 4 d, read-out: average plasma trough concentration) is 200 ± 30 ng/mL. Also, in series [13] (preexposure prophylaxis with 300 and 1,000 mg/kg/d, dosing for 5 d), the “favipiravir trough concentrations in sentinel hamsters vs infection model” value is given as “similar”. Moreover, in series [3], the “decrease of viral RNA in lung vs untreated infected hamsters” value is recorded as 1.0 log10 RNA copies per mg of lung tissue; the “effect on viral RNA in ileum and stool” value is “a smaller effect”; the “hamsters with infectious virus in the lungs” value is given as “two”; the “histological lung pathology (H&E cumulative severity score)” value was “significant improvements”. In [3], the “reduction in viral RNA levels in the lungs” value is recorded as “smaller inhibitory effect”; the “reduction of relative infectivity of lung virus particles” value is 136 fold and 172 fold; the “relative lung viral particle infectivity (infectious particles / viral RNA genomes)” value is “did not decrease”; the weight loss entry is recorded as “over 5%”. The “weight loss, on average” value in [3] is on record as 2%. Also, in series [3] (ip), the “toxicity signs in clinical presentation” value was “No toxicity signs”. Also, the “viral replication in the lung” value in series [14] (favipiravir 1,400 mg/kg/d TID started 1 d before intranasal infection) is “undetectable”. For the same molecule, the “toxicity (weight loss from first day of treatment)” value in series [14] (favipiravir 1,400 mg/kg/d TID) is on record as “high toxicity”. Besides, the “virus infection in hamsters” value in series [14] (favipiravir ~1,400 mg/kg/d TID) is “significant reductions”. Besides, in [15], the teratogenicity result was “teratogenic”. The “clinical recovery rate vs arbidol control group” value in series [16] (COVID-19 patients with hypertension and/or diabetes and critically ill patients) is given as “not significantly different”. In series [16] (COVID-19 patients with mild symptoms), the “clinical recovery rate at day 7 vs arbidol control group” value is reported as “higher”. Further, the “median plasma trough concentration” value in series [17] is listed as 25.9 µg/mL.

Values taken from publication PMC7604414, “Favipiravir at high doses has potent antiviral activity in SARS-CoV-2−infected hamsters, whereas hydroxychloroquine lacks activity” (Proceedings of the National Academy of Sciences of the …, 2020).
